Measurements taken from patent publication US20110070597A1, “Thin-Film Passive Samplers for Detection of Hydrophobic Organic Contaminants and Estrogenicity in Various Environments” (UNIVERSITY OF CONNECTICUT, priority 2009, published 2011).

Format: physicochemical
Description: The polymer coated glass samplers (POG) and the organic rapid equilibrating (ORE) samplers, 10 and 20, both consisting of a thin film (on the order of ˜1-2 μm) of EVA, were calibrated by experimental determination of EVA-Water partition coefficients and sampling rates. The ORE is comprised of a 1.4 μm EVA coating on a 5.1×7.6 cm titanium plate, while the POG utilizes a thin-film of EVA on a glass fiber filter.
A closed system experiment was used to calibrate the POG and ORE devices. Sampling rates and equilibration times were determined for fourteen PBDE congeners. EVA-Water partitioning coefficients (KEVA-W) were experimentally determined for 5 BDE congeners. A Log KEVA-W−Log KOW (Octanol-Water partitioning coefficient) plot was constructed and used to define Log KEVA-W partitioning coefficients for the 14 BDE congeners examined. Values ranged from 6.39 to 10.6. The experimental design was successful in parameterizing the desired constants. In sum, both samplers were successfully calibrated.
A dichloromethane rinsed 20 gallon fish tank was employed for the tank deployment experimental. Three POGs and three OREs were suspended from a stainless steel frame proximate the top of the tank.
Once dry, the tank was filled with artificial seawater comprising sodium chloride, sodium bicarbonate, magnesium sulfate, and high purity Milli-Q water. A handheld multiparameter instrument (YSI-556) was used to confirm salinity (31 parts per thousand), dissolved oxygen (0.19 mM), and temperature (20° C.) prior to starting the experiment. The tank was fit with a plexiglass lid sealed with polytetrafluoroethylene (PTFE; i.e., Teflon®) and duct tape.
The tank was spiked with 0.2 mL of the PBDE Predominant Congener Mixture in n-nonane from Cambridge Isotope laboratories and allowed to equilibrate for 48 hours. Samplers were removed from refrigeration and allowed to equilibrate to room temperature. 400 mL of water was taken to establish the initial concentration. Seven sets of three samplers were added to the tank. The tank was secured with a lid, PTFE and duct tape, as described above. Four hundred milliliter aliquots of tank water and one sampler set were removed at the following time intervals: 1 hr, 2 hrs, 6 hrs, 12 hrs, 3 days, 12 days, and 32 days. The tank was open to the air in the fume hood for less than 4 minutes during each sampling period. After removal, each sampler set was wrapped in pre-cleaned aluminum foil and placed frozen in an airtight bag at −20° C. until extraction and analysis. Water-side 400 mL aliquots were frozen at −20° C. until extraction and analysis.
The POGs and OREs were extracted for analysis of PBDE concentration.
Extracts were analyzed for BDE congeners 17, 28, 47, 66, 71, 85, 99, 100, 138, 153, 154, 183, 190, and 209 by gas chromatography-mass spectrometry (GC/MS). Masses 79 (PBDEs) and 414 (Mirex) were used for quantification with Masses 81 (PBDEs), 487, 486 (DecaBDE), and 412 (Mirex) acting as confirmation ions. Extracts were identified and quantified by comparison with known concentrations of prepared standard solutions.
Sampling rates were calculated experimentally using Equation 2. The sampling rates varied between sampler types. The differences in sampling rates were likely due to variations in the thickness and heterogeneity versus homogeneity of the thin film coating on the respective plates. Sampling rates (RS(s)) were calculated at 1, 2, or 6 hrs depending upon the shape of the uptake curve.

SMILES | LOG KEVA-W (EVA-water partition coefficient) ORE | LOG KEVA-W (EVA-water partition coefficient) POG
Brc1ccc(Oc2ccccc2Br)c(Br)c1 [BDE 17] | 6.40 ± 0.08 | 6.01 ± 0.07
Brc1ccc(Oc2ccc(Br)cc2Br)cc1 [BDE 28] | 6.38 ± 0.10 | 5.90 ± 0.06
Brc1ccc(Oc2ccc(Br)cc2Br)c(Br)c1 [BDE 47] | 6.79 ± 0.10 | 6.43 ± 0.07
Brc1ccc(Oc2ccc(Br)c(Br)c2)c(Br)c1 [BDE 66] | 6.66 ± 0.11 | 6.25 ± 0.07
Brc1ccc(Oc2c(Br)cccc2Br)cc1Br [BDE 71] | 6.67 ± 0.02 | 6.24 ± 0.05
